The values that follow come from publication PMC6792352, “Limited Chemical Structural Diversity Found to Modulate Thyroid Hormone Receptor in the Tox21 Chemical Library” (Environmental Health Perspectives, 2019).

Molecules are shown by their SMILES. Where a name gives a salt, the structure may show the parent alone. Bounds are passed on as bounds.

One data set can be described thus: in vitro. Particulars: rat, gh3-tre-luc cells, AC50 (uM) modified / 1000.
As a reminder, the CC50 is the concentration that lowers cell viability or growth by half. Read a low CC50 as greater toxicity to the cells. The compound `CCCCCC/C=C/C(=O)OC` [Methyl (2E)-2-nonenoate] came in with a CC50 at 24 h greater than 90 µM.

For `CCCCCCCC/C=C\CCCCCCCC(=O)OC` [Methyl (9Z)-octadec-9-enoate], the 50% cytotoxic concentration (CC50) at 24 h was greater than 90 µM.

`COC(=O)/C=C/c1ccccc1` [Methyl (E)-cinnamate] showed a CC50 at 24 h greater than 90 µM.

`COC(=O)[C@@H](N)Cc1ccc(O)c(O)c1` [Methyl L-DOPA hydrochloride] registered a CC50 at 24 h of 19.9 µM.

The compound `COC(=O)[C@@H](N)CS` [Methyl L-cysteinate hydrochloride] returned a CC50 at 24 h greater than 50 µM.

`COC(=O)NCCC[Si](OC)(OC)OC` [Methyl [3-(trimethoxysilyl)propyl]carbamate] gave a CC50 at 24 h greater than 90 µM.

`COC(=O)[C@]1(C)CCC[C@@]2(C)[C@H]1CC=C1C=C(C(C)C)CC[C@@H]12` [Methyl abietate] yielded a CC50 at 24 h of 42.6 µM.

For the compound `COC(C)=O` [Methyl acetate], the CC50 at 24 h was greater than 90 µM.

For the compound `COC(=O)CC(C)=O` [Methyl acetoacetate], the CC50 at 24 h was greater than 90 µM.

On to `C=CC(=O)OC` [Methyl acrylate], for which the CC50 at 24 h is greater than 90 µM.

Turning to `CO[C@H]1O[C@H](CO)[C@@H](O)[C@H](O)[C@H]1O` [Methyl alpha-D-glucopyranoside], the CC50 at 24 h is greater than 90 µM.

On to `COC(=O)CCC(=O)CN` [Methyl aminolevulinate hydrochloride], for which the half-maximal cytotoxic concentration (CC50) at 24 h was greater than 50 µM.

The compound `COC(=O)c1ccccc1` [Methyl benzoate] yielded a CC50 at 24 h greater than 90 µM.

In turn, `CCCC(=O)OC` [Methyl butyrate] returned a CC50 at 24 h greater than 90 µM.

In the case of `COC(N)=O` [Methyl carbamate], the CC50 at 24 h is greater than 90 µM.

With `COC(=O)NN` [Methyl carbazate], the 50% cytotoxic concentration (CC50) at 24 h is greater than 90 µM.

`COC(=O)CC(C)CCC=C(C)C` (stereo not drawn) [Methyl citronellate] yielded a CC50 at 24 h greater than 90 µM.

With `COC(=O)CC#N` [Methyl cyanoacetate], the CC50 at 24 h was greater than 100 µM.

In turn, `CCCCCCCCCC(=O)OC` [Methyl decanoate] came in with a CC50 at 24 h greater than 90 µM.

Regarding `CCCCCC1C(=O)CCC1CC(=O)OC` (stereo not drawn) [Methyl dihydrojasmonate], the CC50 at 24 h is greater than 90 µM.

`CCCCCCCCCCCC(=O)OC` [Methyl dodecanoate]: the CC50 at 24 h is greater than 90 µM.

`CCC(C)=O` [Methyl ethyl ketone] gave a CC50 at 24 h greater than 90 µM.

For `COC=O` [Methyl formate], the CC50 at 24 h was greater than 8 µM.

The compound `COC(=O)/C=C(\C)CCC=C(C)C` [Methyl geranate] showed a CC50 at 24 h greater than 90 µM.

The compound `COc1ccc([C@@H]2CC(=O)c3c(O)cc(O[C@@H]4O[C@H](CO[C@@H]5O[C@@H](C)[C@H](O)[C@@H](O)[C@H]5O)[C@@H](O)[C@H](O)[C@H]4O)cc3O2)cc1OC` [Methyl hesperidin] displayed a 50% cytotoxic concentration (CC50) at 24 h greater than 90 µM.

`CCCCCCCCCCCCCCCC(=O)OC` [Methyl hexadecanoate] yielded a CC50 at 24 h greater than 30 µM.

In turn, `COC(=O)CCCCC(=O)O` [Methyl hexanedioate] had a CC50 at 24 h greater than 90 µM.

`CN=C=O` [Methyl isocyanate] gave a CC50 at 24 h greater than 90 µM.

The compound `C=C(C)C(=O)OC` [Methyl methacrylate] showed a CC50 at 24 h greater than 90 µM.

In the case of `COS(C)(=O)=O` [Methyl methanesulfonate], the CC50 at 24 h is greater than 100 µM.

`COC(=O)c1cccnc1` [Methyl nicotinate] had a CC50 at 24 h greater than 90 µM.

Compound `CCCCCCCC(=O)OC` [Methyl octanoate] registered a CC50 at 24 h greater than 90 µM.

Turning to `COC(=O)C(C)(C)C` [Methyl pivalate], the CC50 at 24 h is greater than 90 µM.

The compound `COC(=O)CC(=O)C(C)(C)C` [Methyl pivaloylacetate] gave a CC50 at 24 h greater than 90 µM.

Compound `CCC(=O)OC` [Methyl propanoate] came in with a CC50 at 24 h greater than 90 µM.

`CCCCCC[C@@H](O)C/C=C\CCCCCCCC(=O)OC` [Methyl ricinoleate] had a CC50 at 24 h greater than 90 µM.

For the compound `COC(=O)c1ccccc1O` [Methyl salicylate], the CC50 at 24 h is greater than 90 µM.

For `COC(C)(C)C` [Methyl tert-butyl ether], the half-maximal cytotoxic concentration (CC50) at 24 h was greater than 90 µM.

`CCCCCCCCCCCCCC(=O)OC` [Methyl tetradecanoate] showed a CC50 at 24 h greater than 90 µM.

Regarding `COC(=O)CS` [Methyl thioglycolate], the CC50 at 24 h was greater than 90 µM.

With `COc1cc(Cl)ccc1Oc1ccc(Cl)cc1Cl` [Methyl triclosan], half-maximal cytotoxicity (CC50 at 24 h) was put at 60.4 µM.

Take `COS(=O)(=O)C(F)(F)F` [Methyl trifluoromethanesulfonate]: the half-maximal cytotoxic concentration (CC50) at 24 h was greater than 100 µM.

`CN` [Methylammonium nitrate] returned a CC50 at 24 h greater than 100 µM.

`CC1CCCC1` [Methylcyclopentane] gave a CC50 at 24 h greater than 90 µM.

With `CO[C@H]1[C@@H](O)C[C@H](O[C@H]2[C@@H](O)C[C@H](O[C@H]3[C@@H](O)C[C@H](O[C@H]4CC[C@@]5(C)[C@H](CC[C@@H]6[C@@H]5C[C@@H](O)[C@]5(C)[C@@H](C7=CC(=O)OC7)CC[C@]65O)C4)O[C@@H]3C)O[C@@H]2C)O[C@@H]1C` [Methyldigoxin], the CC50 at 24 h was greater than 50 µM.

The compound `C[C@](N)(Cc1ccc(O)c(O)c1)C(=O)O` [Methyldopa sesquihydrate] gave a CC50 at 24 h greater than 90 µM.

With `CCOC(=O)[C@@](C)(N)Cc1ccc(O)c(O)c1` [Methyldopate hydrochloride], the CC50 at 24 h is greater than 20 µM.

`C=C(CC(=O)O)C(=O)O` [Methylenebutanedioic acid] had a CC50 at 24 h greater than 90 µM.

On to `C=CCc1ccc(OC)c(OC)c1` [Methyleugenol], for which the 50% cytotoxic concentration (CC50) at 24 h was greater than 90 µM.

Consider `CNN` [Methylhydrazine sulfate], for which the CC50 at 24 h was greater than 90 µM.

For `Cc1cc(O)ccc1O` [Methylhydroquinone], the midpoint of cytotoxicity, the CC50 at 24 h, lay at 14.8 µM.

For `CCC(=O)/C=C/C1C(C)=CCCC1(C)C` (stereo not drawn) [Methylionone], the CC50 at 24 h was greater than 90 µM.

Compound `COC(=O)c1ccc(O)cc1` [Methylparaben] gave a CC50 at 24 h greater than 90 µM.

With `CC1CCN(CCCC(=O)c2ccc(F)cc2)CC1` [Methylperone], the CC50 at 24 h was greater than 50 µM.

The compound `COC(=O)C(c1ccccc1)C1CCCCN1` (stereo not drawn) [Methylphenidate hydrochloride] came in with a CC50 at 24 h greater than 90 µM.

As to `CO[SiH](C)C` [Methylpolysilicone], the CC50 at 24 h was greater than 100 µM.

`CC(=O)OCC(=O)[C@@]1(O)CC[C@H]2[C@@H]3C[C@H](C)C4=CC(=O)C=C[C@]4(C)[C@H]3[C@@H](O)C[C@@]21C` [Methylprednisolone acetate] registered a CC50 at 24 h greater than 50 µM.

`C[C@H]1C[C@@H]2[C@H]([C@@H](O)C[C@@]3(C)[C@H]2CC[C@]3(O)C(=O)COC(=O)CCC(=O)O)[C@@]2(C)C=CC(=O)C=C12` [Methylprednisolone succinate]: the CC50 at 24 h is greater than 50 µM.

For the compound `COC(=O)C(C)=O` [Methylpyruvate], the CC50 at 24 h is greater than 90 µM.

Take `CC(=O)O[Si](C)(OC(C)=O)OC(C)=O` [Methylsilanetriyl triacetate]: the CC50 at 24 h is greater than 90 µM.

The compound `CCCCCCCC[N+](C)(CCCCCCCC)CCCCCCCC` [Methyltrioctylammonium trifluoromethanesulfonate] displayed a CC50 at 24 h of 4.19 µM.

The compound `CC[C@@H](CO)NC(=O)[C@@H]1C=C2c3cccc4c3c(cn4C)C[C@H]2N(C)C1` [Methysergide] registered a CC50 at 24 h greater than 50 µM.

Regarding `COC1=CC(=O)O[C@@H](/C=C/c2ccc3c(c2)OCO3)C1` [Methysticin], the CC50 at 24 h is greater than 90 µM.

The compound `Cc1cc2c(cc1S(N)(=O)=O)S(=O)(=O)CCC2` [Meticrane] returned a CC50 at 24 h greater than 20 µM.

`CC(=O)Oc1c(C)cc(OCC(O)CNC(C)C)c(C)c1C` (stereo not drawn) [Metipranolol] gave a CC50 at 24 h greater than 50 µM.

In turn, `CSc1ccc2c(c1)C(N1CCN(C)CC1)Cc1ccccc1S2` (stereo not drawn) [Metitepine] showed a CC50 at 24 h of 5.16 µM.

Regarding `CN1CCCC(CC2c3ccccc3Sc3ccccc32)C1` (stereo not drawn) [Metixene hydrochloride], the CC50 at 24 h turned out to be 8.17 µM.

Staying with this data set, now noted: rat, gh3-tre-luc cells, AC50 (uM) modified / 1000, Tox21_110001=Tox21_111257; viability, 1 nM T3 present, 24 h.
With `CNC(=O)OCC[N+](C)(C)C` [Methylcarbamylcholine chloride], the half-maximal cytotoxic concentration (CC50) at 24 h was greater than 50 µM.

Staying with this data set, now noted: rat, gh3-tre-luc cells, AC50 (uM) modified / 1000, Tox21_110001=Tox21_111521; viability, 1 nM T3 present, 24 h.
With `C[C@@H]([C@H](O)c1ccccc1)N(C)C` [Methylephedrine], the CC50 at 24 h was greater than 50 µM.

The same data set, now with this note: rat, gh3-tre-luc cells, AC50 (uM) modified / 1000, Tox21_110001=Tox21_200363; viability, 1 nM T3 present, 24 h.
In turn, `C=CC(C)=O` [Methyl vinyl ketone] registered a cytotoxic concentration (CC50) at 24 h greater than 90 µM.

The data set is the same for the next values; noted with them: rat, gh3-tre-luc cells, AC50 (uM) modified / 1000, Tox21_110001=Tox21_201502; viability, 1 nM T3 present, 24 h.
Regarding `CC(=O)C=Cc1ccccc1` [Methyl styryl ketone], the CC50 at 24 h is greater than 90 µM.

The same data set, now with this note: rat, gh3-tre-luc cells, AC50 (uM) modified / 1000, Tox21_110001=Tox21_201525; viability, 1 nM T3 present, 24 h.
In turn, `CSSC` [Methyl disulfide] came in with a CC50 at 24 h greater than 90 µM.

The same data set, now with this note: rat, gh3-tre-luc cells, AC50 (uM) modified / 1000, Tox21_110001=Tox21_201548; viability, 1 nM T3 present, 24 h.
On to `CN=C=S` [Methyl isothiocyanate], for which the CC50 at 24 h was greater than 90 µM.

The same data set, now with this note: rat, gh3-tre-luc cells, AC50 (uM) modified / 1000, Tox21_110001=Tox21_202325; viability, 1 nM T3 present, 24 h.
`N#CSCSC#N` [Methylene bis(thiocyanate)]: half-maximal cytotoxicity (CC50 at 24 h) was put at 3.41 µM.

Staying with this data set, now noted: rat, gh3-tre-luc cells, AC50 (uM) modified / 1000, Tox21_110001=Tox21_300792; viability, 1 nM T3 present, 24 h.
`COC(=O)Cc1ccccc1` [Methyl phenylacetate] gave a CC50 at 24 h greater than 90 µM.

The same data set, now with this note: rat, gh3-tre-luc cells, AC50 (uM) modified / 1000, Tox21_110001=Tox21_300912; viability, 1 nM T3 present, 24 h.
For `CN=C=S` [Methyl isothiocyanate], the CC50 at 24 h was greater than 200 µM.

Staying with this data set, now noted: rat, gh3-tre-luc cells, AC50 (uM) modified / 1000, Tox21_110001=Tox21_301058; viability, 1 nM T3 present, 24 h.
Take `N#CSCSC#N` [Methylene bis(thiocyanate)]: the CC50 at 24 h came out at 5.63 µM.

Staying with this data set, now noted: rat, gh3-tre-luc cells, AC50 (uM) modified / 1000, Tox21_110001=Tox21_301598; viability, 1 nM T3 present, 24 h.
`CC(=O)/C=C/c1ccccc1` [Methyl trans-styryl ketone] registered a cytotoxic concentration (CC50) at 24 h greater than 90 µM.
